Assay results: publication PMC11845477, “Exploring the principles behind antibiotics with limited resistance” (Nature Communications, 2025)

Assays:
[1] = tested on: K. pneumoniae ATCC 10031 (SEN) and K. pneumoniae ATCC 700603 (MDR); assay: Adaptive laboratory evolution (ALE), relative MIC of evolved lines; assay type: cell-based, Klebsiella pneumoniae
Summary of the method: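 Ten parallel populations per antibiotic–ancestor pair were evolved in MHB at 37 °C, starting near 50% growth-inhibiting drug. Every 72 h they were passaged into 0.5–2.5× increasing concentrations, keeping the highest-drug well with OD600 > 0.2.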

[2] = tested on: E. coli BW25113-ΔacrB; assay: AcrAB-TolC efflux deficiency screen, relative MIC; assay type: cell-based, Escherichia coli; conditions: ΔacrB vs wild-type
Experimental: Fig. 6 The impact of AcrAB-TolC activity on antibiotic susceptibility. E. coli strains with AcrAB-TolC depletion (BW25113-ΔacrB) and overexpression (BW25113: pUCacrAB) were treated with various antibiotics, and the level of resistance was determined as minimum inhibitory concentration (MIC) relative to a wild-type strain, presented on a logarithmic scale (log2). Each bar represents the mean resistance level (susceptibility, i.e., level of resistance < 0; and resistance, i.e., level of resistance > 0) to antibiotics induced by acrAB overexpression (blue bars; E. coli with a multicopy plasmid of the acrAB genes (pUCacrAB)) and acrB deletion (red bars; mutant E. coli with acrB gene deletion (ΔacrB)) compared to the wild-type. Data are presented as mean values of 3 biological replicates ± SD. […] Detailed information on antibiotic and bacterial strain abbreviations is provided in Supplementary Data 1. Source data are provided as a Source Data file. For information on mode of action groups, refer to Table 1.
For the efflux deficiency screen, the ΔacrB mutant of E. coli K12 BW25113[86] and its equivalent wild-type control strain with intact gene were utilized. In contrast, BW25113 carrying a multicopy acrAB plasmid (pUCacrAB)[87] and its control strain harboring an empty pUC118 plasmid were used to overexpress the acrAB efflux system. According to established protocols via P1 transduction, the suitable acrB deletion mutant (ΔacrB BW25113) was created, while the pUCacrAB plasmid was kindly provided by Kunihiko Nishino and Akihito Yamaguchi (Osaka University, Osaka, Japan). In a prior study, both strains were employed. Since the copy number of the plasmid carrying the efflux pump is controlled by native promoters, external induction is unnecessary.
Antibiotic susceptibilities of these strains were evaluated using a modified version of the standard broth dilution method. In 96-well microtiter plates containing fresh MHB medium, or supplemented MS medium in case of SCH79797, ten-step serial dilutions of an antibiotic from a stock solution were made (2 wells per antibiotic concentration per strain). The two wells contained only supplemented media without any antibiotics […]. Strains were incubated overnight at 37 °C with continuous agitation. Additionally, plasmid containing strains were grown in the presence of 100 µg/mL ampicillin. The culture was diluted to yield a cell suspension with 5 ×10^5 cells/mL and then inoculated into the wells of the microtiter plate. To determine the medium’s background OD value, the first column of the 96-well plate contained solely MHB without inoculum. Prior to the measurement, the plates were incubated at 37 °C with continuous shaking at 900 rpm with 3 mm throw. OD600 values were determined in a microplate reader after 18 hours of incubation (Biotek Synergy 2). The minimum inhibitory concentration (MIC) was determined as the lowest concentration of antibiotic at which the OD600 values were less than 0.05 after subtracting the background value. The log2 of the relative MIC was computed using the following equation:2 log2relativeMICpUCacrAB=MICpUCacrAB/MICpUC118 3 log2relativeMICΔacrB=MICΔacrB/MICwt

[3] = KP-SEN (Klebsiella pneumoniae ATCC 10031), evolved line 1
[4] = KP-SEN (Klebsiella pneumoniae ATCC 10031), evolved line 3
[5] = KP-SEN (Klebsiella pneumoniae ATCC 10031), evolved line 9
[6] = KP-SEN (Klebsiella pneumoniae ATCC 10031), evolved line 10
[7] = KP-SEN, Klebsiella pneumoniae ATCC 10031, evolved line 7
[8] = Klebsiella pneumoniae ATCC 10031 (KP-SEN), evolved line 1
[9] = Klebsiella pneumoniae ATCC 10031 (KP-SEN), evolved line 4
[10] = KP-SEN (Klebsiella pneumoniae ATCC 10031), evolved line 2 adapted to the named antibiotic
[11] = KP-SEN (Klebsiella pneumoniae ATCC 10031), evolved line 6
[12] = KP-SEN (Klebsiella pneumoniae ATCC 10031), evolved line 6 adapted to the named antibiotic
[13] = KP-SEN (Klebsiella pneumoniae ATCC 10031), evolved line 8
[14] = KP-SEN, Klebsiella pneumoniae ATCC 10031, evolved line 1 versus ancestor
[15] = KP-SEN, Klebsiella pneumoniae ATCC 10031, evolved line 2 versus ancestor
[16] = KP-SEN, Klebsiella pneumoniae ATCC 10031, evolved line 4 versus ancestor
[17] = KP-SEN, Klebsiella pneumoniae ATCC 10031, evolved line 5 versus ancestor
[18] = KP-SEN, Klebsiella pneumoniae ATCC 10031, evolved line 6 versus ancestor
[19] = KP-SEN, Klebsiella pneumoniae ATCC 10031, evolved line 7 versus ancestor
[20] = KP-SEN, Klebsiella pneumoniae ATCC 10031, evolved line 8 versus ancestor
[21] = KP-SEN, Klebsiella pneumoniae ATCC 10031, evolved line 9 versus ancestor
[22] = KP-SEN, Klebsiella pneumoniae ATCC 10031, evolved line 5

Compound: CN(C)[C@@H]1C(O)=C(C(N)=O)C(=O)[C@@]2(O)C(O)=C3C(=O)c4c(O)c(NC(=O)CN5CCCC5)cc(F)c4C[C@H]3C[C@@H]12 [Eravacycline]
- Relative MIC ([1]; KP-MDR (ATCC 700603), evolved line 1, MIC of evolved line / MIC of ancestor): 8
- Relative MIC ([1]; KP-MDR (ATCC 700603), evolved line 2, MIC of evolved line / MIC of ancestor): 8
- Relative MIC ([1]; KP-MDR (ATCC 700603), evolved line 3, MIC of evolved line / MIC of ancestor): 16
- Relative MIC ([1]; KP-MDR (ATCC 700603), evolved line 4, MIC of evolved line / MIC of ancestor): 8
- Relative MIC ([1]; KP-MDR (ATCC 700603), evolved line 5, MIC of evolved line / MIC of ancestor): 8
- Relative MIC ([1]; KP-MDR (ATCC 700603), evolved line 6, MIC of evolved line / MIC of ancestor): 8
- Relative MIC ([1]; KP-MDR (ATCC 700603), evolved line 7, MIC of evolved line / MIC of ancestor): 8
- Relative MIC ([1]; KP-MDR (ATCC 700603), evolved line 8, MIC of evolved line / MIC of ancestor): 16
- Relative MIC ([1]; KP-MDR (ATCC 700603), evolved line 9, MIC of evolved line / MIC of ancestor): 8
- Relative MIC ([1]; KP-MDR (ATCC 700603), evolved line 10, MIC of evolved line / MIC of ancestor): 8
- Relative MIC (log10) ([1]; KP-MDR (Klebsiella pneumoniae ATCC 700603), evolved line 1 adapted to the named antibiotic): 0.9031
- Relative MIC (log10) ([1]; KP-MDR (Klebsiella pneumoniae ATCC 700603), evolved line 3 adapted to the named antibiotic): 1.204
- Relative MIC (log10) ([1]; KP-MDR (Klebsiella pneumoniae ATCC 700603), evolved line 4 adapted to the named antibiotic): 0.9031
- Relative MIC (log10) ([1]; KP-MDR (Klebsiella pneumoniae ATCC 700603), evolved line 8 adapted to the named antibiotic): 1.204
- Relative MIC (log10) ([1]; KP-MDR (Klebsiella pneumoniae ATCC 700603), evolved line 9 adapted to the named antibiotic): 0.9031
- Relative MIC ([1]; KP-SEN (ATCC 10031), evolved line 1, evolved vs ancestor): 512
- Relative MIC ([1]; KP-SEN (ATCC 10031), evolved line 3, evolved vs ancestor): 256
- Relative MIC ([1]; KP-SEN (ATCC 10031), evolved line 4, evolved vs ancestor): 64
- Relative MIC ([1]; KP-SEN (ATCC 10031), evolved line 7, evolved vs ancestor): 64
- Relative MIC ([1]; KP-SEN (ATCC 10031), evolved line 9, evolved vs ancestor): 256
- Relative MIC ([1]; KP-SEN (ATCC 10031), evolved line 10, evolved vs ancestor): 512
- Relative MIC (log10) [1, 3]: 2.709 log10
- Relative MIC (log10) [1, 4]: 2.408 log10
- Relative MIC (log10) [1, 5]: 2.408 log10
- Relative MIC (log10) [1, 6]: 2.709 log10
- Relative MIC (log10) [1, 7]: 1.806 log10
- Relative MIC [1, 8]: 512
- Relative MIC ([1]; Klebsiella pneumoniae ATCC 10031 (KP-SEN), evolved line 3): 256
- Relative MIC [1, 9]: 64
- Relative MIC ([1]; Klebsiella pneumoniae ATCC 10031 (KP-SEN), evolved line 7): 64
- Relative MIC ([1]; Klebsiella pneumoniae ATCC 10031 (KP-SEN), evolved line 9): 256
- Relative MIC ([1]; Klebsiella pneumoniae ATCC 10031 (KP-SEN), evolved line 10): 512
- Relative MIC ([1]; Klebsiella pneumoniae ATCC 700603 (KP-MDR), evolved line 1): 8
- Relative MIC ([1]; Klebsiella pneumoniae ATCC 700603 (KP-MDR), evolved line 2): 8
- Relative MIC ([1]; Klebsiella pneumoniae ATCC 700603 (KP-MDR), evolved line 3): 16
- Relative MIC ([1]; Klebsiella pneumoniae ATCC 700603 (KP-MDR), evolved line 4): 8
- Relative MIC ([1]; Klebsiella pneumoniae ATCC 700603 (KP-MDR), evolved line 5): 8
- Relative MIC ([1]; Klebsiella pneumoniae ATCC 700603 (KP-MDR), evolved line 6): 8
- Relative MIC ([1]; Klebsiella pneumoniae ATCC 700603 (KP-MDR), evolved line 7): 8
- Relative MIC ([1]; Klebsiella pneumoniae ATCC 700603 (KP-MDR), evolved line 8): 16
- Relative MIC ([1]; Klebsiella pneumoniae ATCC 700603 (KP-MDR), evolved line 9): 8
- Relative MIC ([1]; Klebsiella pneumoniae ATCC 700603 (KP-MDR), evolved line 10): 8
- Relative MIC (log2) ([2]; replicate 1): -2.34
- Relative MIC (log2) ([2]; replicate 2): -2.34
- Relative MIC (log2) ([2]; replicate 3): -2.34

Compound: CNC(C)C1CCC(N)C(OC2C(N)CC(N)C(OC3OCC(C)(O)C(NC)C3O)C2O)O1 (stereo not drawn) [Gentamicin]
- Relative MIC (log10) [1, 10]: 2.107
- Relative MIC (log10) ([1]; KP-SEN (Klebsiella pneumoniae ATCC 10031), evolved line 4 adapted to the named antibiotic): 1.806
- Relative MIC (log10) ([1]; KP-SEN (Klebsiella pneumoniae ATCC 10031), evolved line 5 adapted to the named antibiotic): 1.806
- Relative MIC [1, 11]: 64
- Relative MIC (log10) [1, 12]: 1.806
- Relative MIC [1, 13]: 128
- Relative MIC (log10) ([1]; KP-SEN (Klebsiella pneumoniae ATCC 10031), evolved line 8 adapted to the named antibiotic): 2.107
- Relative MIC [1, 5]: 128
- Relative MIC [1, 6]: 128
- Relative MIC [1, 14]: 64
- Relative MIC [1, 15]: 128
- Relative MIC [1, 16]: 64
- Relative MIC [1, 17]: 64
- Relative MIC [1, 18]: 64
- Relative MIC [1, 19]: 64
- Relative MIC [1, 20]: 128
- Relative MIC [1, 21]: 128
- Relative MIC ([1]; KP-SEN, Klebsiella pneumoniae ATCC 10031, evolved line 10 versus ancestor): 128
- Relative MIC [1, 22]: 64
- Relative MIC [1, 7]: 64
- Relative MIC [1, 8]: 64
- Relative MIC ([1]; Klebsiella pneumoniae ATCC 10031 (KP-SEN), evolved line 2): 128
- Relative MIC [1, 9]: 64
- Relative MIC (log2) ([2]; replicate 1): 0
- Relative MIC (log2) ([2]; replicate 2): 0
- Relative MIC (log2) ([2]; replicate 3): 0

Compound: O=c1ccc2ncc(=O)n3c2n1C[C@H]3CN1CCC(NCc2cc3c(cn2)OCCC3)CC1 [Gepotidacin]
- Relative MIC [1, 3]: 2048
- Relative MIC ([1]; KP-SEN (Klebsiella pneumoniae ATCC 10031), evolved line 2): 2048
- Relative MIC (log10) [1, 10]: 3.311
- Relative MIC [1, 4]: 1024
- Relative MIC (log10) ([1]; KP-SEN (Klebsiella pneumoniae ATCC 10031), evolved line 3 adapted to the named antibiotic): 3.0103
- Relative MIC ([1]; KP-SEN (Klebsiella pneumoniae ATCC 10031), evolved line 4): 1024
- Relative MIC [1, 11]: 2048
- Relative MIC (log10) [1, 12]: 3.311
- Relative MIC (log10) ([1]; KP-SEN (Klebsiella pneumoniae ATCC 10031), evolved line 7 adapted to the named antibiotic): 3.311
- Relative MIC [1, 13]: 1024
- Relative MIC [1, 5]: 1024
- Relative MIC [1, 14]: 2048
- Relative MIC [1, 15]: 2048
- Relative MIC ([1]; KP-SEN, Klebsiella pneumoniae ATCC 10031, evolved line 3 versus ancestor): 1024
- Relative MIC [1, 16]: 1024
- Relative MIC [1, 17]: 1024
- Relative MIC [1, 18]: 2048
- Relative MIC [1, 19]: 2048
- Relative MIC [1, 20]: 1024
- Relative MIC [1, 21]: 1024
- Relative MIC [1, 22]: 1024
- Relative MIC [1, 7]: 2048
- Relative MIC (log2) ([2]; replicate 1): -4
- Relative MIC (log2) ([2]; replicate 2): -4
- Relative MIC (log2) ([2]; replicate 3): -4
